Test results as given in patent US20130324530A1 (Novartis AG, priority 2010, published 2013).

Target: Cdk9/cyclinT1 (Homo sapiens, UniProt P50750)
Experiment: Cdk9/CyclinT1 IMAP assay

Sequence of Cdk9/cyclinT1 (P50750 whole entry): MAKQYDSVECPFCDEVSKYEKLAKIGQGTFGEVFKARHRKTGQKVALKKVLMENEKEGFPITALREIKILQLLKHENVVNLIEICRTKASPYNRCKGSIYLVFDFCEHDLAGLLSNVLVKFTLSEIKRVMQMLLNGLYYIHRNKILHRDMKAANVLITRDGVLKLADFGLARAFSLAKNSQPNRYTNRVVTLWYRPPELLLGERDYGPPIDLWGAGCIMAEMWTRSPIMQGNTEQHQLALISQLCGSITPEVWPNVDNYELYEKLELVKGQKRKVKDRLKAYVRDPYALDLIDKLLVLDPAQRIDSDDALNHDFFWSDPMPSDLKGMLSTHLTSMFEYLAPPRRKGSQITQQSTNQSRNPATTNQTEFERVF
Sequence of Cdk9/cyclinT1 (O60563 whole entry partner): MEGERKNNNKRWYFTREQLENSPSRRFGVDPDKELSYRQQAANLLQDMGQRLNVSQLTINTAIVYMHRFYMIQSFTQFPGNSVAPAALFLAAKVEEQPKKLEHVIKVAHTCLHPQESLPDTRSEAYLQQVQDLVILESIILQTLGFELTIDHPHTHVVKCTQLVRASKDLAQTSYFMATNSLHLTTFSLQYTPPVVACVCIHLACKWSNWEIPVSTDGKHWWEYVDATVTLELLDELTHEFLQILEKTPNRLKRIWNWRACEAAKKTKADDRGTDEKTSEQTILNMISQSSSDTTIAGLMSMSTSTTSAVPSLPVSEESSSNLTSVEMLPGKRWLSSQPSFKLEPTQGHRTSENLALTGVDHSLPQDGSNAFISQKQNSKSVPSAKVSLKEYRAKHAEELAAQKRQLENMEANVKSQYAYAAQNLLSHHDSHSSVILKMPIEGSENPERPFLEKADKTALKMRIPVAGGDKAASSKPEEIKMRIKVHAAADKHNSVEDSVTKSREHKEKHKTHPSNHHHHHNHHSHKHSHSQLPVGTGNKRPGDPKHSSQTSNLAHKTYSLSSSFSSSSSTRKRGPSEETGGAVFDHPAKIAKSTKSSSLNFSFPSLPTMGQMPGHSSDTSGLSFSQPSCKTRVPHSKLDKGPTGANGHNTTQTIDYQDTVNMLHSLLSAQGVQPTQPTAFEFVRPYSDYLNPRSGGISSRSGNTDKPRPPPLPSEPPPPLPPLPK

| SMILES | IC50 [nM] |
| --- | --- |
| CC(C)(CN)CNc1cc(-c2cncc(NCc3cccc(F)c3)c2)c(Cl)cn1 [Compound 12] | 32 |
| CN(C)CC(C)(C)CNc1cc(-c2cncc(NCc3cccc(F)c3)c2)c(Cl)cn1 [Compound 13] | 130 |
| O[C@H]1CC[C@@H](Nc2cc(-c3cc(NCC4CCOCC4)cnc3Cl)c(Cl)cn2)CC1 [Compound 17] | 25 |
| N[C@H]1CC[C@@H](Nc2cc(-c3cncc(NCc4cccc(F)c4)c3)c(Cl)cn2)CC1 [Compound 21] | 11 |
| N[C@H]1CC[C@H](Nc2cc(-c3cncc(NCC4CCCCC4)c3)c(Cl)cn2)CC1 [Compound 23] | 10 |
| N[C@H]1CC[C@H](Nc2cc(-c3cnc(N4CCOCC4)c(NCC4CCOCC4)c3)c(Cl)cn2)CC1 [Compound 26, N2′-(trans-4-aminocyclohexyl)-5′-chloro-6-morpholino-N5-((tetrahydro-2H-pyran-4-yl)methyl)-3,4′-bipyridine-2′,5-diamine] | 1960 |
| Clc1cnc(NC2CC2)cc1-c1cncc(NCC2CCOCC2)c1 [Compound 27] | 57 |
| CN1CCC(CNc2cc(-c3cncc(NCC4CCOCC4)c3)c(Cl)cn2)CC1 [Compound 28] | 1970 |
| N[C@H]1CC[C@H](Nc2cc(-c3cncc(NCC4CCCOC4)c3)c(Cl)cn2)CC1 (some centres unmarked) [Compound 29] | 16 |
| CN(Cc1cccc(F)c1)c1cncc(-c2cc(N[C@H]3CC[C@H](N)CC3)ncc2Cl)c1 [Compound 32] | 16 |
| CC(=O)N1CCC(CNc2cncc(-c3cc(N[C@H]4CC[C@H](N)CC4)ncc3Cl)c2)CC1 [Compound 36, 1-(4-((2′-(trans-4-aminocyclohexylamino)-5′-chloro-3,4′-bipyridin-5-ylamino)methyl)piperidin-1-yl)ethanone] | 32 |
| OCCNc1cc(-c2cnc(N3CCOCC3)c(NCc3cccc(F)c3)c2)c(Cl)cn1 [Compound 37] | 6920 |
| CN(C)CCCCNc1cc(-c2cncc(NCc3cccc(F)c3)c2)c(Cl)cn1 [Compound 38] | 21 |
| C[C@H](CO)Nc1cc(-c2cncc(NCC3CCOCC3)c2)c(Cl)cn1 [Compound 41] | 325 |
| N[C@H]1CC[C@H](Nc2cc(-c3cnc(N4CCOCC4)c(NCc4cccc(F)c4)c3)c(Cl)cn2)CC1 [Compound 45] | 610 |
| O[C@H]1CC[C@H](Nc2cc(-c3cnc(N4CCOCC4)c(NCC4CCOCC4)c3)c(Cl)cn2)CC1 [Compound 46] | 1830 |
| NCC(O)CNc1cc(-c2cncc(NCc3cccc(F)c3)c2)c(Cl)cn1 (centres unmarked) [Compound 50] | 10 |
| CS(=O)(=O)N1CCC(CNc2cncc(-c3cc(N[C@H]4CC[C@H](N)CC4)ncc3Cl)c2)CC1 [Compound 52] | 35 |
| O[C@H]1CC[C@H](Nc2cc(-c3cnc(N4CCOCC4)c(NCc4cccc(F)c4)c3)c(Cl)cn2)CC1 [Compound 53] | 660 |
| Clc1cnc(NCC[C@H]2CCCNC2)cc1-c1cncc(NCC2CCOCC2)c1 [Compound 56] | 68 |
| OCCCNc1cc(-c2cncc(NCC3CCOCC3)c2)c(Cl)cn1 [Compound 57] | 199 |
| COCCNc1cc(-c2cncc(NCC3CCOCC3)c2)c(Cl)cn1 [Compound 58] | 2260 |
| OCC(CO)Nc1cc(-c2cncc(NCc3cccc(F)c3)c2)c(Cl)cn1 [Compound 59] | 130 |
| N[C@H]1CC[C@H](Nc2cc(-c3cncc(NCC4CCOCC4)c3)c(Cl)cn2)CC1 [Compound 63, N2′-(trans-4-aminocyclohexyl)-5′-chloro-N5-((tetrahydro-2H-pyran-4-yl)methyl)-3,4′-bipyridine-2′,5-diamine] | 18 |

Stronger by IC50, values ahead:

| IC50 [nM] | SMILES |
| --- | --- |
| 8 | COc1cccc(CNc2cncc(-c3cc(N[C@H]4CC[C@H](N)CC4)ncc3Cl)c2)c1 [Compound 15] |
| 9 | N[C@H]1CC[C@H](Nc2cc(-c3cncc(NCc4cccnc4)c3)c(Cl)cn2)CC1 [Compound 22] |
| < 8 | N[C@H]1CC[C@H](Nc2cc(-c3cncc(NCc4cccc(F)c4)c3)c(Cl)cn2)CC1 [Compound 24, N2′-(trans-4-aminocyclohexyl)-5′-chloro-N5-(3-fluorobenzyl)-3,4′-bipyridine-2′,5-diamine] |
| < 8 | Clc1cnc(N[C@H]2CC[C@H](NC[C@H]3CCCO3)CC2)cc1-c1cc(NCC2CCOCC2)cnc1Cl [Compound 25, 2,5′-dichloro-N5-((tetrahydro-2H-pyran-4-yl)methyl)-N2′-(trans-4-(((R)-tetrahydrofuran-2-yl)methylamino)cyclohexyl)-3,4′-bipyridine-2′,5-diamine] |
| < 8 | OCCNc1cc(-c2cncc(NCc3cccc(F)c3)c2)c(Cl)cn1 [Compound 30] |
| < 8 | CN(C)[C@H]1CC[C@H](Nc2cc(-c3cncc(NCc4cccc(F)c4)c3)c(Cl)cn2)CC1 [Compound 31, 5′-chloro-N2′-(trans-4-(dimethylamino)cyclohexyl)-N5-(3-fluorobenzyl)-3,4′-bipyridine-2′,5-diamine] |
| < 8 | N[C@H]1CC[C@H](Nc2cc(-c3cncc(NCc4ccc(F)cc4)c3)c(Cl)cn2)CC1 [Compound 33] |
| < 8 | Cc1cccc(CNc2cncc(-c3cc(N[C@H]4CC[C@H](N)CC4)ncc3Cl)c2)c1 [Compound 34] |
| < 8 | N[C@H]1CC[C@H](Nc2cc(-c3cncc(NCc4ccc(F)c(F)c4)c3)c(Cl)cn2)CC1 [Compound 35] |
| < 8 | NC[C@H]1CC[C@H](Nc2cc(-c3cncc(NCc4cccc(F)c4)c3)c(Cl)cn2)CC1 [Compound 39, N2′-(trans-4-(aminomethyl)cyclohexyl)-5′-chloro-N5-(3-fluorobenzyl)-3,4′-bipyridine-2′,5-diamine] |
| < 8 | OCCCNc1cc(-c2cncc(NCc3cccc(F)c3)c2)c(Cl)cn1 [Compound 40] |
| < 8 | N[C@H]1CC[C@H](Nc2cc(-c3cncc(NCc4cccc(Cl)c4)c3)c(Cl)cn2)CC1 [Compound 42] |
| < 8 | N[C@H]1CC[C@H](Nc2cc(-c3cncc(NCc4cc(F)ccc4F)c3)c(Cl)cn2)CC1 [Compound 43] |
| < 8 | N[C@H]1CC[C@H](Nc2cc(-c3cncc(NCc4cccc(F)c4)c3)ccn2)CC1 [Compound 44, N2′-(trans-4-aminocyclohexyl)-N5-(3-fluorobenzyl)-3,4′-bipyridine-2′,5-diamine] |
| < 8 | Fc1cccc(CNc2cncc(-c3cc(NC4CC4)ncc3Cl)c2)c1 [Compound 47] |
| < 8 | Fc1cccc(CNc2cncc(-c3cc(NC4CCCC4)ncc3Cl)c2)c1 [Compound 48] |
| < 8 | Fc1cccc(CNc2cncc(-c3cc(NCC[C@H]4CCCNC4)ncc3Cl)c2)c1 [Compound 49] |
| < 8 | N[C@H]1CC[C@H](Nc2cc(-c3cncc(NCc4ccccc4)c3)c(Cl)cn2)CC1 [Compound 51] |
| < 8 | O[C@H]1CC[C@H](Nc2cc(-c3cnc(F)c(NCC4CCOCC4)c3)c(Cl)cn2)CC1 [Compound 54] |
| < 8 | N[C@H]1CC[C@H](Nc2cc(-c3cnc(F)c(NCC4CCOCC4)c3)c(Cl)cn2)CC1 [Compound 55, N2′-(trans-4-aminocyclohexyl)-5′-chloro-6-fluoro-N5-((tetrahydro-2H-pyran-4-yl)methyl)-3,4′-bipyridine-2′,5-diamine] |
| < 8 | NCCCNc1cc(-c2cncc(NCc3cccc(F)c3)c2)c(Cl)cn1 [Compound 60] |
| < 8 | NCCCCNc1cc(-c2cncc(NCc3cccc(F)c3)c2)c(Cl)cn1 [Compound 61] |
| < 8 | O[C@H]1CC[C@H](Nc2cc(-c3cncc(NCc4cccc(F)c4)c3)c(Cl)cn2)CC1 [Compound 62] |
